# Data from US20250179055A1, “Substituted 2-(pyrrolidine-3-yl)acetic acid derivative, preparation method and use thereof” (INNOVSTONE THERAPEUTICS LIMITED, priority 2023, published 2025).
# Target: Lp(a) assembly in HepG2 cells overexpressing ApoA protein (Homo sapiens (Human), UniProt P08519)
# Test: ELISA assay on screening Lp(a) assembly inhibition
# Assay type: cell-based
# Conditions: HepG2 cells overexpressing ApoA protein, 24 h, ELISA of supernatant
# Method: Test Example 1 and Methods of ELISA Assay on Screening Lp(a) Assembly Inhibition
# • 1) Preheated the culture media, DPBS, and pancreatin in a 37° C. water bath in advance. • 2) Digested cells with pancreatin, transferred the cell suspension to a 15 mL centrifuge tube, and centrifuged at 1000 rpm for 5 min. • 3) Resuspended the cells with culture media and transferred the cell suspension to a new T75 cell culture flask. • 4) Cultured at 37° C. in a 5% CO2 incubator.
# • 1) Seeded HepG2 cells overexpressing of ApoA protein into a 96-well plate at 100 μL per well and incubated overnight for attachment. • 2) Replaced with fresh culture media the next day, then added diluted compounds, and cultured the cell plate in a 5% CO2, 37° C. incubator for 24 h.
# • 1) Added 10 μL of 1.5 M EACA to each well. • 2) Centrifuged at 1000 rpm for 1 min, and transferred 100 μL of cell culture supernatant to a pre-coated ELISA plate.
# • 1) Added 100 μL of capture antibody to each well of a pre-coated ELISA plate and incubated overnight at 25° C. • 2) Added 300 μL of washing solution to each well and washed 5 times for 1 min each time. • 3) Added 100 μL of blocking solution to each well and incubated at 25° C. for 2 h. • 4) Added 300 μL of washing solution to each well and washed 5 times for 1 min each time. • 5) Added 100 μL of sample to each well and incubated at 25° C. for 1 h. • 6) Added 300 μL of washing solution to each well and washed 5 times for 1 min each time. • 7) Added 100 μL of detection antibody to each well and incubated at 25° C. for 1 h. • 8) Added 300 μL of washing solution to each well and washed 5 times for 1 min each time. • 9) Added 100 μL substrate solution (Color Reagent A: Color Reagent B, 1:1) to each well and incubated for 20 min at 25° C. in the dark. • 10) Added […] of stop solution to each well, gently blowed and sucked several times with the pipette tip, and read within 5 min.
# [formula] • X: cpd concentration • Y: inhibition % • Top and Bottom: Plateaus in same units as Y • log IC50: same log units as X • HillSlope: Slope factor or Hill slope
# Chain of Lp(a) assembly in HepG2 cells overexpressing ApoA protein (P08519 20-2040): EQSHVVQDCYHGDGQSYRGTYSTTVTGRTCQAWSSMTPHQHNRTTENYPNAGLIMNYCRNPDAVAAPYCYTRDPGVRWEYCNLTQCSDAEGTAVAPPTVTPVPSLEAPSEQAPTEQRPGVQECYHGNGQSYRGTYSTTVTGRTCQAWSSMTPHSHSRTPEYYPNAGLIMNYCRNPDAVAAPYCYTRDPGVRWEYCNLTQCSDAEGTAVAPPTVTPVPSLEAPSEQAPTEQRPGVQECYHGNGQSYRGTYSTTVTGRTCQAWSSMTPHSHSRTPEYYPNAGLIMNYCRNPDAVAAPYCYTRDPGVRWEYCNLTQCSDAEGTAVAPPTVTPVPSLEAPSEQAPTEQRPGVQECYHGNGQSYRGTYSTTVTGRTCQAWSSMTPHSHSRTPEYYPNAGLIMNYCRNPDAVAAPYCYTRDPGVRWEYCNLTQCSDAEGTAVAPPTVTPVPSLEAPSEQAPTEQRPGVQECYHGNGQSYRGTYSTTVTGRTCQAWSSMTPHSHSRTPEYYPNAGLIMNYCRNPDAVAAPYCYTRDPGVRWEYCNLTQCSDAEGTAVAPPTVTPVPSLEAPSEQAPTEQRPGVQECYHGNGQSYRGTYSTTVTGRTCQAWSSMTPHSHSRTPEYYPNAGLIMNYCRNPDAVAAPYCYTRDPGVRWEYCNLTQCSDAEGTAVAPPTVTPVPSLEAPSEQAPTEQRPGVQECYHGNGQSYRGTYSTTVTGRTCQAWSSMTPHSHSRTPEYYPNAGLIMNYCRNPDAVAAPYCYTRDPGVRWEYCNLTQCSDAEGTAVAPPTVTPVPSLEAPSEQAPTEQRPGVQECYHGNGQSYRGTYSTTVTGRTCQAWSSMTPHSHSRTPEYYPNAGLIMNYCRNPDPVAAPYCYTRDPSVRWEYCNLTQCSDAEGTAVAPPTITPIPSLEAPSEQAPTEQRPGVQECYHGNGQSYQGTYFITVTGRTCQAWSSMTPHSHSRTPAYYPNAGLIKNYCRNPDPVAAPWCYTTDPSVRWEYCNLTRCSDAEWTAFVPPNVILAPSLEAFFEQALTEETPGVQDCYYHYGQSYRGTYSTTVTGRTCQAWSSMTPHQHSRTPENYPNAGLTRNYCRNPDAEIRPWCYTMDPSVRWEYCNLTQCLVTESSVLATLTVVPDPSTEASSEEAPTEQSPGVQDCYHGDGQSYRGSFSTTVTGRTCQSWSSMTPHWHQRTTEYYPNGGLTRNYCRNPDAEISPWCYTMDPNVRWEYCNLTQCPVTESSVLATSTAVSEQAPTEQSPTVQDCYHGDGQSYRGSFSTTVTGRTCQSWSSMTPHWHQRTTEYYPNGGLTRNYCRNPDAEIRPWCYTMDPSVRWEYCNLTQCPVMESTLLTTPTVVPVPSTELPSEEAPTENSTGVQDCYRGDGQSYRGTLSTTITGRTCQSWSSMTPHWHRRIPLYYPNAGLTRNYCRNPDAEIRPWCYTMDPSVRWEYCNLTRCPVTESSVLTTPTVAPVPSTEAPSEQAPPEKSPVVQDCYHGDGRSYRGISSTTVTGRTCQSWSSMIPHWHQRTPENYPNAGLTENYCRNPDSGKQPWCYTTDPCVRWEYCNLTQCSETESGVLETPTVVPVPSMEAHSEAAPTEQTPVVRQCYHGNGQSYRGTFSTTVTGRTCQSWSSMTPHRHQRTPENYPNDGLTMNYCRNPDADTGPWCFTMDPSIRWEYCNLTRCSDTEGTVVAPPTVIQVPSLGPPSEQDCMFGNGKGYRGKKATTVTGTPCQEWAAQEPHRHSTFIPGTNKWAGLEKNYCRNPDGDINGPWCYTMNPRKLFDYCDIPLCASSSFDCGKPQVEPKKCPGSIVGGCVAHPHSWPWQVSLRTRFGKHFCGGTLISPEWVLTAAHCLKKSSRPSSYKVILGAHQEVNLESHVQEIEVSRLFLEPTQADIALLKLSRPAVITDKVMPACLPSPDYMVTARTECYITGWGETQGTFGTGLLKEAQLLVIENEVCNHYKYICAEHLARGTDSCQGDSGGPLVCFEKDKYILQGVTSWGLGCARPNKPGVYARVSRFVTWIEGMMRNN
row,Structure (SMILES),IC50
1,"O=C(O)[C@@H](Cc1cccc(CC(=O)N(CCOc2cccc(C[C@H](C(=O)O)[C@@H]3CCNC3)c2)Cc2cccc(C[C@H](C(=O)O)[C@@H]3CCNC3)c2)c1)[C@@H]1CCNC1 [Compound 210, (S)-3-(3-(2-((3-((S)-2-carboxy-2-((S)-pyrrolidin-3-yl)ethyl)benzyl)(2-(3-((S)-2-carboxy-2-((S)-pyrrolidin-3-yl)ethyl)phenoxy)ethyl)amino)-2-oxoethyl)phenyl)-2-((S)-pyrrolidin-3-yl)propanoic acid]",1.52 nM
2,"[2H]C([2H])(c1cccc(C[C@H](C(=O)O)[C@H]2CCNC2)c1)N(Cc1cccc(C[C@H](C(=O)O)[C@H]2CCNC2)c1)C([2H])([2H])c1cccc(C[C@H](C(=O)O)[C@H]2CCNC2)c1 [Compound 93, (2S,2′S)-3,3′-((((3-((S)-2-carboxy-2-((R)-pyrrolidin-3-yl)ethyl)benzyl)azanediyl)bis(methylene-d2))bis(3,1-phenylene))bis(2-((R)-pyrrolidin-3-yl)propanoic acid)]",0.81 nM
3,"O=C(O)[C@@H](Cc1ccc2occ(CCN(CCc3coc4ccc(C[C@H](C(=O)O)[C@H]5CCNC5)cc34)CCc3coc4ccc(C[C@H](C(=O)O)[C@H]5CCNC5)cc34)c2c1)[C@H]1CCNC1 [Compound 67, (2S,2′S,2″S)-3,3′,3″-((nitrilotris(ethane-2,1-diyl))tris(benzofuran-3,5-diyl))tris(2-((R)-pyrrolidin-3-yl)propanoic acid)]",8.55 nM
4,"O=C(O)[C@@H](Cc1cccc(CC(=O)N(CCSc2cccc(C[C@H](C(=O)O)[C@H]3CCNC3)c2)Cc2cccc(C[C@H](C(=O)O)[C@H]3CCNC3)c2)c1)[C@H]1CCNC1 [Compound 158, (S)-3-(3-(2-((3-((S)-2-carboxy-2-((R)-pyrrolidin-3-yl)ethyl)benzyl)(2-((3-((S)-2-carboxy-2-((R)-pyrrolidin-3-yl)ethyl)phenyl)thio)ethyl)amino)-2-oxoethyl)phenyl)-2-((R)-pyrrolidin-3-yl)propanoic acid]",1.65 nM
5,"O=C(O)[C@@H](Cc1cccc(COc2cc(OCc3cccc(C[C@H](C(=O)O)[C@H]4CCNC4)c3)cc(OCc3cccc(C[C@H](C(=O)O)[C@H]4CCNC4)c3)c2)c1)[C@H]1CCNC1 [Compound 122, (2S,2′S,2″S)-3,3′,3″-(((benzene-1,3,5-triyltris(oxy))tris(methylene))tris(benzene-3,1-diyl))tris(2-((R)-pyrrolidin-3-yl)propanoic acid)]",1.87 nM
6,"O=C(O)[C@@H](Cc1cccc(CN(Cc2cccc(C[C@H](C(=O)O)[C@H]3CCNC3)c2)Cc2ccc3oc(C[C@H](C(=O)O)[C@H]4CCNC4)cc3c2)c1)[C@H]1CCNC1 [Compound 126, (2S,2′S)-3,3′-(((((2-((S)-2-carboxy-2-((R)-pyrrolidin-3-yl)ethyl)benzofuran-5-yl)methyl)azanediyl)bis(methylene))bis(3,1-phenylene))bis(2-((R)-pyrrolidin-3-yl)propanoic acid)]",1.26 nM
7,"O=C(O)[C@@H](Cc1cccc(CCN(Cc2cccc(C[C@H](C(=O)O)[C@H]3CCNC3)c2)C(=O)c2cccc(C[C@H](C(=O)O)[C@H]3CCNC3)c2)c1)[C@H]1CCNC1 [Compound 99, (S)-3-(3-(2-(3-((S)-2-carboxy-2-((R)-pyrrolidin-3-yl)ethyl)-N-(3-((S)-2-carboxy-2-((R)-pyrrolidin-3-yl)ethyl)benzyl)benzamido)ethyl)phenyl)-2-((R)-pyrrolidin-3-yl)propanoic acid]",0.96 nM
8,"O=C(O)[C@@H](Cc1cc(CN(Cc2cc(C[C@H](C(=O)O)[C@H]3CCNC3)cc3ccoc23)Cc2cc(C[C@H](C(=O)O)[C@H]3CCNC3)cc3ccoc23)c2occc2c1)[C@H]1CCNC1 [Compound 102, (2S,2′S,2″S)-3,3′,3″-((nitrilotris(methylene))tris(benzofuran-7,5-diyl))tris(2-((R)-pyrrolidin-3-yl)propanoic acid)]",0.74 nM
9,"O=C(O)[C@@H](Cc1cccc(CCC(=O)N(CCNc2cccc(C[C@H](C(=O)O)[C@H]3CCNC3)c2)Cc2cccc(C[C@H](C(=O)O)[C@H]3CCNC3)c2)c1)[C@H]1CCNC1 [Compound 147, (S)-3-(3-(3-((3-((S)-2-carboxy-2-((R)-pyrrolidin-3-yl)ethyl)benzyl)(2-((3-((S)-2-carboxy-2-((R)-pyrrolidin-3-yl)ethyl)phenyl)amino)ethyl)amino)-3-oxopropyl)phenyl)-2-((R)-pyrrolidin-3-yl)propanoic acid]",0.86 nM
10,"O=C(O)[C@@H](Cc1cccc(CCN(CCc2cccc(C[C@H](C(=O)O)[C@H]3CCNC3)c2)C(=O)Cc2cccc(C[C@H](C(=O)O)[C@H]3CCNC3)c2)c1)[C@H]1CCNC1 [Compound 107, (2S,2′S)-3,3′-((((2-(3-((S)-2-carboxy-2-((R)-pyrrolidin-3-yl)ethyl)phenyl)acetyl)azanediyl)bis(ethane-2,1-diyl))bis(3,1-phenylene))bis(2-((R)-pyrrolidin-3-yl)propanoic acid)]",1.66 nM
11,"O=C(O)[C@@H](Cc1ccc2scc(CN(Cc3csc4ccc(C[C@H](C(=O)O)[C@H]5CCNC5)cc34)Cc3csc4ccc(C[C@H](C(=O)O)[C@H]5CCNC5)cc34)c2c1)[C@H]1CCNC1 [Compound 49, (2S,2′S,2″S)-3,3′,3″-((nitrilotris(methylene))tris(benzo[b]thiophene-3,5-diyl))tris(2-((R)-pyrrolidin-3-yl)propanoic acid)]",3.22 nM
12,"O=C(O)[C@@H](Cc1cccc(CN(CCOc2cccc(C[C@H](C(=O)O)[C@H]3CCNC3)c2)C(=O)Oc2cccc(C[C@H](C(=O)O)[C@H]3CCNC3)c2)c1)[C@H]1CCNC1 [Compound 139, (S)-3-(3-(2-((3-((S)-2-carboxy-2-((R)-pyrrolidin-3-yl)ethyl)benzyl)((3-((S)-2-carboxy-2-((R)-pyrrolidin-3-yl)ethyl)phenoxy)carbonyl)amino)ethoxy)phenyl)-2-((R)-pyrrolidin-3-yl)propanoic acid]",0.66 nM

# Continued by falling IC50, values first:
row,IC50,Structure (SMILES)
1,3.81 nM,"O=C(Cc1cccc(CC(C(=O)O)C2CCNC2)c1)NCc1cccc(C[C@H](C(=O)O)[C@H]2CCNC2)c1 (stereo in doubt) [Compound 143, (S)-3-(3-(2-((3-((S)-2-carboxy-2-((R)-pyrrolidin-3-yl)ethyl)benzyl)amino)-2-oxoethyl)phenyl)-2-((R)-pyrrolidin-3-yl)propanoic acid]"
2,3.4 nM,"O=C(CN(CCOc1cccc(C[C@H](C(=O)O)[C@H]2CCNC2)c1)CCOc1cccc(C[C@H](C(=O)O)[C@H]2CCNC2)c1)c1cccc(C[C@H](C(=O)O)[C@H]2CCNC2)c1 [Compound 112, (2S,2′S)-3,3′-(((((2-(3-((S)-2-carboxy-2-((R)-pyrrolidin-3-yl)ethyl)phenyl)-2-oxoethyl)azanediyl)bis(ethane-2,1-diyl))bis(oxy))bis(3,1-phenylene))bis(2-((R)-pyrrolidin-3-yl)propanoic acid)]"
3,2.58 nM,"O=C(O)[C@@H](Cc1cccc(CN2CCN(Cc3cccc(C[C@H](C(=O)O)[C@H]4CCNC4)c3)CC2)c1)[C@H]1CCNC1 [Compound 117, (2S,2′S)-3,3′-((piperazine-1,4-diylbis(methylene))bis(3,1-phenylene))bis(2-((R)-pyrrolidin-3-yl)propanoic acid)]"
4,2.31 nM,"O=C(CN(CCOc1cccc(C[C@H](C(=O)O)[C@H]2CCNC2)c1)CC(=O)c1cccc(C[C@H](C(=O)O)[C@H]2CCNC2)c1)c1cccc(C[C@H](C(=O)O)[C@H]2CCNC2)c1 [Compound 80, (2S,2′S)-3,3′-((2,2′-((2-(3-((S)-2-carboxy-2-((R)-pyrrolidin-3-yl)ethyl)phenoxy)ethyl)azanediyl)bis(acetyl))bis(3,1-phenylene))bis(2-((R)-pyrrolidin-3-yl)propanoic acid)]"
5,1.72 nM,"O=C(O)[C@@H](Cc1cccc(COC(=O)N(CCOc2cccc(C[C@H](C(=O)O)[C@H]3CCNC3)c2)Cc2cccc(C[C@H](C(=O)O)[C@H]3CCNC3)c2)c1)[C@H]1CCNC1 [Compound 145, (S)-3-(3-(2-((3-((S)-2-carboxy-2-((R)-pyrrolidin-3-yl)ethyl)benzyl)(((3-((S)-2-carboxy-2-((R)-pyrrolidin-3-yl)ethyl)benzyl)oxy)carbonyl)amino)ethoxy)phenyl)-2-((R)-pyrrolidin-3-yl)propanoic acid]"
6,0.71 nM,"O=C(O)[C@@H](Cc1cccc(CN(CCOc2cccc(C[C@H](C(=O)O)[C@H]3CCNC3)c2)C(=O)COc2cccc(C[C@H](C(=O)O)[C@H]3CCNC3)c2)c1)[C@H]1CCNC1 [Compound 135, (S)-3-(3-(2-((3-((S)-2-carboxy-2-((R)-pyrrolidin-3-yl)ethyl)benzyl)(2-(3-((S)-2-carboxy-2-((R)-pyrrolidin-3-yl)ethyl)phenoxy)ethyl)amino)-2-oxoethoxy)phenyl)-2-((R)-pyrrolidin-3-yl)propanoic acid]"
